From patent US10167262B2, “Herbicidal substituted 3-arylpyrazoles” (FMC CORPORATION, priority 2014, dated 2019)
Where two headings read alike, the source gives them in different places.

How the values were obtained:
Format in all cases: in vivo
[1] = system: pigweed (Amaranthus retroflexus); assay: Test A pre-/postemergence greenhouse herbicide test, visual injury rating 0-100; conditions: for pest or weed control at 500 g/ha: 500 g ai/ha
Summary of the method: (§1)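 Seeds planted in loam-sand blend; preemergence directed soil spray and postemergence spray at 2–10 cm, one- to two-leaf stage, compounds formulated in non-phytotoxic solvent with surfactant. After about 10 days in greenhouse, injury rated visually against untreated controls, 0 (no effect) to 100 (complete control).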

[2] = system: large (Lg) crabgrass (Digitaria sanguinalis); assay: as above; conditions: for pest or weed control at 500 g/ha: 500 g ai/ha
Summary of the method: as §1

[3] = system: giant foxtail (Setaria faberii); assay: as above; conditions: for pest or weed control at 500 g/ha: 500 g ai/ha
Summary of the method: as §1

[4] = system: barnyardgrass (Echinochloa crus-galli); assay: as above; conditions: for pest or weed control at 500 g/ha: 500 g ai/ha
Summary of the method: as §1

[5] = system: wheat (Triticum aestivum); assay: as above; conditions: for plant injury at 500 g/ha: 500 g ai/ha
Summary of the method: as §1

[6] = system: velvetleaf (Abutilon theophrasti); assay: as above; conditions: for pest or weed control at 500 g/ha: 500 g ai/ha
Summary of the method: as §1

[7] = system: morningglory (Ipomoea spp.); assay: as above; conditions: for pest or weed control at 500 g/ha: 500 g ai/ha
Summary of the method: as §1

[8] = system: corn (Zea mays); assay: as above; conditions: for plant injury at 500 g/ha: 500 g ai/ha
Summary of the method: as §1

[9] = system: Italian ryegrass (Lolium multiflorum); assay: Test C pre-/postemergence greenhouse test, plant response rating 0-100; conditions: Lolium multiflorum; for pest or weed control at 62 g/ha: 62 g ai/ha; for pest or weed control at 125 g/ha: 125 g ai/ha; for pest or weed control at 250 g/ha: 250 g ai/ha
Summary of the method: (§2)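 Formulated in solvent with surfactant, test chemicals were sprayed on seeded loam/sand pots and, concurrently, on young plants 2–18 cm tall. Evaluation: visual, versus controls, day 13–15.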

[10] = system: galium (catchweed bedstraw, Galium aparine); assay: as above; conditions: Galium; for pest or weed control at 62 g/ha: 62 g ai/ha; for pest or weed control at 125 g/ha: 125 g ai/ha; for pest or weed control at 250 g/ha: 250 g ai/ha
Summary of the method: as §2

[11] = system: morningglory (Ipomoea coccinea); assay: as above; conditions: Ipomoea; for pest or weed control at 62 g/ha: 62 g ai/ha; for pest or weed control at 125 g/ha: 125 g ai/ha; for pest or weed control at 250 g/ha: 250 g ai/ha
Summary of the method: as §2

[12] = system: velvetleaf (Abutilon theophrasti); assay: as above; conditions: Abutilon theophrasti; for pest or weed control at 62 g/ha: 62 g ai/ha; for pest or weed control at 125 g/ha: 125 g ai/ha; for pest or weed control at 250 g/ha: 250 g ai/ha
Summary of the method: as §2

[13] = system: ragweed (common ragweed, Ambrosia elatior); assay: as above; conditions: Ambrosia artemisiifolia; for pest or weed control at 62 g/ha: 62 g ai/ha; for pest or weed control at 125 g/ha: 125 g ai/ha; for pest or weed control at 250 g/ha: 250 g ai/ha
Summary of the method: as §2

[14] = post-emergence, Postemergence, read-out: Plant response rating (0 to 100), Ryegrass, Italian
[15] = post-emergence, Postemergence, scale 0 to 100
[16] = post-emergence, Postemergence, 500 g ai/ha, scale 0 to 100
[17] = pre-emergence, Preemergence, read-out: Plant response rating, Ryegrass, Italian
[18] = post-emergence, Postemergence, read-out: Plant response rating (0 to 100), Galium
[19] = pre-emergence, Preemergence, read-out: Plant response rating, Galium
[20] = post-emergence, Postemergence, read-out: Plant response rating (0 to 100), Morningglory
[21] = pre-emergence, Preemergence, read-out: Plant response rating, Morningglory
[22] = post-emergence, Postemergence, read-out: Plant response rating (0 to 100), Velvetleaf
[23] = pre-emergence, Preemergence, read-out: Plant response rating, Velvetleaf
[24] = post-emergence, Postemergence, read-out: Plant response rating (0 to 100), Ragweed
[25] = pre-emergence, Preemergence, read-out: Plant response rating, Ragweed

Compound `O=C(c1ccccc1)c1cn(CO)nc1-c1cc(Cl)cc(Cl)c1` [Compound 15, [3-(3,5-dichlorophenyl)-1-(hydroxymethyl)-1H-pyrazol-4-yl]phenylmethanone] has a pest or weed control at 125 g/ha ([1]; Amaranthus retroflexus, post-emergence, 240 h, Postemergence, 125 g ai/ha, read-out: Plant response rating (0 to 100 scale), Pigweed) of 80%, a pest or weed control at 500 g/ha ([1]; Amaranthus retroflexus, post-emergence, 240 h, Postemergence, read-out: Plant response rating (0 to 100 scale), Pigweed) of 90% and a pest or weed control at 500 g/ha ([1]; Amaranthus retroflexus, pre-emergence, 240 h, Preemergence, read-out: Plant response rating (0 to 100 scale), Pigweed) of 100%. For the same compound, the “Pigweed plant response rating (0 = no effect, 100 = complete control)” value ([1]; Preemergence, 125 g ai/ha) was 20, the pest or weed control at 125 g/ha ([2]; Digitaria sanguinalis, post-emergence, 240 h, Postemergence, 125 g ai/ha, read-out: Plant response rating (0 to 100 scale), Crabgrass, Large) was 0% and the pest or weed control at 500 g/ha ([2]; Digitaria sanguinalis, post-emergence, 240 h, Postemergence, read-out: Plant response rating (0 to 100 scale), Crabgrass, Large) was 0%. The pest or weed control at 500 g/ha ([2]; Digitaria sanguinalis, pre-emergence, 240 h, Preemergence, read-out: Plant response rating (0 to 100 scale), Crabgrass, Large) was 0%, the “Crabgrass, Large plant response rating (0 = no effect, 100 = complete control)” value ([2]; Preemergence, 125 g ai/ha) was 0 and the “Foxtail, Giant plant response rating (0 = no effect, 100 = complete control)” value ([3]; Preemergence, 125 g ai/ha) was 0. For the same compound, the pest or weed control at 125 g/ha ([3]; Setaria faberi, post-emergence, 240 h, Postemergence, 125 g ai/ha, read-out: Plant response rating (0 to 100 scale), Foxtail, Giant) was 0%, the pest or weed control at 500 g/ha ([3]; Setaria faberi, post-emergence, 240 h, Postemergence, read-out: Plant response rating (0 to 100 scale), Foxtail, Giant) was 0% and the pest or weed control at 500 g/ha ([3]; Setaria faberi, pre-emergence, 240 h, Preemergence, read-out: Plant response rating (0 to 100 scale), Foxtail, Giant) was 0%. The pest or weed control at 125 g/ha ([4]; Echinochloa crus-galli, post-emergence, 240 h, Postemergence, 125 g ai/ha, read-out: Plant response rating (0 to 100 scale), Barnyardgrass) was 0%, the pest or weed control at 500 g/ha ([4]; Echinochloa crus-galli, post-emergence, 240 h, Postemergence, read-out: Plant response rating (0 to 100 scale), Barnyardgrass) was 0% and the pest or weed control at 500 g/ha ([4]; Echinochloa crus-galli, pre-emergence, 240 h, Preemergence, read-out: Plant response rating (0 to 100 scale), Barnyardgrass) was 0%. The “Barnyardgrass plant response rating (0 = no effect, 100 = complete control)” value ([4]; Preemergence, 125 g ai/ha) was 0, the “Wheat plant response rating (0 = no effect, 100 = complete control)” value ([5]; Preemergence, 125 g ai/ha) was 0 and the plant injury at 125 g/ha ([5]; Triticum aestivum, post-emergence, 240 h, Postemergence, 125 g ai/ha, read-out: Plant response rating (0 to 100 scale), Wheat) was 0%. It also gave a plant injury at 500 g/ha ([5]; Triticum aestivum, post-emergence, 240 h, Postemergence, read-out: Plant response rating (0 to 100 scale), Wheat) of 0%, a plant injury at 500 g/ha ([5]; Triticum aestivum, pre-emergence, 240 h, Preemergence, read-out: Plant response rating (0 to 100 scale), Wheat) of 0% and a pest or weed control at 125 g/ha ([6]; Abutilon theophrasti, post-emergence, 240 h, Postemergence, 125 g ai/ha, read-out: Plant response rating (0 to 100 scale), Velvetleaf) of 80%. The pest or weed control at 500 g/ha ([6]; Abutilon theophrasti, post-emergence, 240 h, Postemergence, read-out: Plant response rating (0 to 100 scale), Velvetleaf) was 90%, the pest or weed control at 500 g/ha ([6]; Abutilon theophrasti, pre-emergence, 240 h, Preemergence, read-out: Plant response rating (0 to 100 scale), Velvetleaf) was 90% and the “Velvetleaf plant response rating (0 = no effect, 100 = complete control)” value ([6]; Preemergence, 125 g ai/ha) was 40. The pest or weed control at 125 g/ha ([7]; Ipomoea, post-emergence, 240 h, Postemergence, 125 g ai/ha, read-out: Plant response rating (0 to 100 scale), Morningglory) was 0%, the pest or weed control at 500 g/ha ([7]; Ipomoea, post-emergence, 240 h, Postemergence, read-out: Plant response rating (0 to 100 scale), Morningglory) was 0% and the pest or weed control at 500 g/ha ([7]; Ipomoea, pre-emergence, 240 h, Preemergence, read-out: Plant response rating (0 to 100 scale), Morningglory) was 0%. For the same compound, the “Morningglory plant response rating (0 = no effect, 100 = complete control)” value ([7]; Preemergence, 125 g ai/ha) was 0, the “Corn plant response rating (0 = no effect, 100 = complete control)” value ([8]; Preemergence, 125 g ai/ha) was 0 and the plant injury at 125 g/ha ([8]; Zea mays, post-emergence, 240 h, Postemergence, 125 g ai/ha, read-out: Plant response rating (0 to 100 scale), Corn) was 0%. For the same compound, the plant injury at 500 g/ha ([8]; Zea mays, post-emergence, 240 h, Postemergence, read-out: Plant response rating (0 to 100 scale), Corn) was 0%, the plant injury at 500 g/ha ([8]; Zea mays, pre-emergence, 240 h, Preemergence, read-out: Plant response rating (0 to 100 scale), Corn) was 0% and the pest or weed control at 62 g/ha [9, 14] was 0%. It also gave a pest or weed control at 125 g/ha [9, 14] of 0%, a pest or weed control at 250 g/ha [9, 15] of 0% and a pest or weed control at 500 g/ha [9, 16] of 0%. For the same compound, the pest or weed control at 62 g/ha [9, 17] was 0%, the pest or weed control at 125 g/ha [9, 17] was 0% and the pest or weed control at 250 g/ha ([9]; pre-emergence, Preemergence) was 0%. The pest or weed control at 62 g/ha [10, 18] was 0%, the pest or weed control at 125 g/ha [10, 18] was 0% and the pest or weed control at 250 g/ha [10, 15] was 10%. For the same compound, the pest or weed control at 500 g/ha [10, 16] was 45%, the pest or weed control at 31 g/ha ([10]; pre-emergence, Preemergence, 31 g ai/ha, read-out: Plant response rating, Galium) was 0% and the pest or weed control at 62 g/ha [10, 19] was 0%. It also gave a pest or weed control at 125 g/ha [10, 19] of 0%, a pest or weed control at 250 g/ha ([10]; pre-emergence, Preemergence) of 0% and a pest or weed control at 62 g/ha [11, 20] of 0%. For the same compound, the pest or weed control at 125 g/ha [11, 20] was 0%, the pest or weed control at 250 g/ha [11, 15] was 10% and the pest or weed control at 500 g/ha [11, 16] was 20%. The pest or weed control at 31 g/ha ([11]; pre-emergence, Preemergence, 31 g ai/ha) was 0%, the pest or weed control at 62 g/ha [11, 21] was 0% and the pest or weed control at 125 g/ha [11, 21] was 0%. For the same compound, the pest or weed control at 250 g/ha ([11]; pre-emergence, Preemergence) was 0%, the pest or weed control at 62 g/ha [12, 22] was 80% and the pest or weed control at 125 g/ha [12, 22] was 80%. It also gave a pest or weed control at 250 g/ha [12, 15] of 90%, a pest or weed control at 500 g/ha [12, 16] of 90% and a pest or weed control at 62 g/ha [12, 23] of 60%. For the same compound, the pest or weed control at 125 g/ha [12, 23] was 100%, the pest or weed control at 250 g/ha ([12]; pre-emergence, Preemergence) was 100% and the pest or weed control at 62 g/ha [13, 24] was 60%. For the same compound, the pest or weed control at 125 g/ha [13, 24] was 75%, the pest or weed control at 250 g/ha [13, 15] was 85% and the pest or weed control at 500 g/ha [13, 16] was 85%. For the same compound, the pest or weed control at 62 g/ha [13, 25] was 35%, the pest or weed control at 125 g/ha [13, 25] was 95% and the pest or weed control at 250 g/ha ([13]; pre-emergence, Preemergence) was 100%.
